Drawing on patent US20260193173A1, “AMINO ACID-BENZOIC ACID OLIGOMERS AND METHODS OF USE THEREOF FOR TREATING CANCER” (Board of Regents, The University of Texas System, priority 2022, published 2026), this text covers IC50 for four compounds.

As usually defined, the IC50 is the concentration that gives 50% inhibition. Lower therefore signals greater potency.

Assay [1] has as its system DU145 prostate cancer cells. The experiment in a line: MTT assay, growth inhibition of prostate cancer cell line DU145. It counts as cell-based. The settings on record: Homo sapiens, DU-145, incubated with DU145 cells for 72 hours. The protocol: FIGS. 3A-3C show % inhibition (determined by MTT assay) of disclosed compounds on prostate cancer cell line DU145. Compounds were incubated with DU145 cells for 72 hours, showing strong cell growth inhibition with IC50 of 0.15-0.7 μM.

Another assay concerns the target Bcl-2 (Homo sapiens, UniProt P10415). The assay can be described thus: Bcl-2 protein binding, fluorescence polarization assay. The text has this:
IC50 values were in the submicromolar range as determined by fluorescence polarization assay.

Bcl-2, sequence (P10415 whole entry): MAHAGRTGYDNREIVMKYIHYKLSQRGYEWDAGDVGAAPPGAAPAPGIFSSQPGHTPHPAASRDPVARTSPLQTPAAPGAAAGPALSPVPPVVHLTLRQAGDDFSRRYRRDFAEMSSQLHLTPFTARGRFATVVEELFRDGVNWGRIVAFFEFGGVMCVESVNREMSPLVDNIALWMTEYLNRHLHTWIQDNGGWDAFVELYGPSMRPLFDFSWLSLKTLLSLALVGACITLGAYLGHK

On to `CCC(C)C(NC(=O)c1ccc(NC(=O)C(NC(=O)c2ccc(N)c(OC)c2)C(C)CC)c(OCC(C)C)c1)C(=O)Nc1ccc(C(N)=O)cc1OCc1ccccc1` (centres unmarked) [Compound B9], for which the IC50 in assay [1] was 300 nM; on Bcl-2, 1540 nM.
The corresponding values for `CCC(C)C(NC(=O)c1ccc(N)c(OC)c1)C(=O)Nc1ccc(C(=O)NC(CCSC)C(=O)Nc2ccc(C(N)=O)cc2OCC(C)C)cc1OCC(C)C` (centres unmarked) [Compound B10] are 779 nM and 1960 nM.
The corresponding values for `CC(C)COc1cc(C(=O)NC(CS)C(=O)Nc2ccc(C(=O)NC(Cc3ccccc3)C(=O)Nc3ccc(C(N)=O)cc3OCC(C)C)cc2OCC(C)C)ccc1N` (centres unmarked) [Compound B11] are 120 nM and 1080 nM.
For `COc1cc(C(=O)NC(Cc2ccc(O)cc2)C(=O)Nc2ccc(C(=O)NC(CCSC)C(=O)Nc3ccc(C(N)=O)cc3OCc3ccccc3)cc2OCC(C)C)ccc1N` (centres unmarked) [Compound B12] the same measures were 702 nM and 599 nM.
